Data as given in the Kinase Knowledgebase extract (Sharma et al. 2016).
pIC50: −log10 of the molar value.

biological target: MAPK14 (human) (UniProt Q16539); assay: Inhibition of MAPK14 Kinase Activity
Sequence (Q16539 whole entry, looked up): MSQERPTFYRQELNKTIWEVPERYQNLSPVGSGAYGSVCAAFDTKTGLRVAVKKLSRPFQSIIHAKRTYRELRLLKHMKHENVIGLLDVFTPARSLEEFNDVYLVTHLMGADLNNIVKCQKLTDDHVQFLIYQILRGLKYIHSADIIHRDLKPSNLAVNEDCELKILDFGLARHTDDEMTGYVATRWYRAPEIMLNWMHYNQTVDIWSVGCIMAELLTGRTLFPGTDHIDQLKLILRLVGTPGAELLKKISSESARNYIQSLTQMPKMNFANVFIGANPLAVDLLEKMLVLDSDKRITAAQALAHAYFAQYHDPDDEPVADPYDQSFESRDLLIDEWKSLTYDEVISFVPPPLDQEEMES

Row | SMILES | pIC50
1 | O=C1CCC(Oc2ccccc2F)CN1c1c(Cl)cncc1Cl (stereo unspecified) | ≥ 4.70
2 | O=C1CSC(Cc2ccc3ccccc3c2)CN1c1c(Cl)cccc1Cl (stereo unspecified) | ≥ 5.00
3 | CN1CC(Cc2ccc(Cl)cc2)CN(c2c(Cl)cccc2Cl)C1=O (stereo unspecified) | ≥ 5.00
4 | Cc1cc(C#CCCN2CCN(C)CC2)cc(C)c1N1CC(Cc2ccc(F)cc2F)CCC1=O (stereo unspecified) | ≥ 5.00
5 | O=C1CCC(Cc2ccc(F)cc2)CN1c1c(Cl)cncc1Cl (stereo unspecified) | ≥ 5.00
6 | CC(=O)Nc1ccc(Cl)c(N2CC(Cc3ccc(F)cc3F)SCC2=O)c1Cl (stereo unspecified) | ≥ 5.00
7 | O=C1CC/C(=C\c2ccc(F)cc2F)CN1c1c(Cl)cc(Br)cc1Cl | ≥ 5.00
8 | CC(=O)N1CC(=O)N(c2c(Cl)cccc2Cl)CC1Cc1ccc(F)cc1F (stereo unspecified) | ≥ 5.00
9 | CC(=O)NC1CC(Cl)C(N2CC(Cc3ccc(F)cc3F)CCC2=O)C(Cl)C1 (stereo unspecified) | ≥ 5.00
10 | O=C1CCC(Oc2ccc(F)cc2)CN1c1c(Cl)cccc1Cl (stereo unspecified) | ≥ 5.00
11 | Cc1cc(C(=O)NCCCC(=O)O)cc(C)c1N1CC(Cc2ccc(F)cc2F)CCC1=O (stereo unspecified) | ≥ 5.00
12 | CC(=O)Nc1ccc(Cl)c(N2CC(Sc3ccc(F)cc3F)CCC2=O)c1Cl (stereo unspecified) | ≥ 5.00
13 | CC(=O)NC1CC(Cl)C(N2CC(Oc3ccc(F)cc3F)CCC2=O)C(Cl)C1 (stereo unspecified) | ≥ 5.00
14 | O=C1CCC(Sc2ccc(F)cc2F)CN1C1C(Cl)CC(CO)CC1Cl (stereo unspecified) | ≥ 5.00
15 | Cc1cc(C)cc(CC2CCC(=O)N(c3c(Cl)ccnc3Cl)C2)c1 (stereo unspecified) | ≥ 5.00
16 | Cc1cc(/C=C/CCN(C)C)cc(C)c1N1CC(Cc2ccc(F)cc2F)CCC1=O (stereo unspecified) | ≥ 5.00
17 | CNC1CCC(Cl)C(N2CC(Sc3ccc(F)cc3F)CCC2=O)C1Cl (stereo unspecified) | ≥ 5.00
18 | O=C(Cc1ccccc1)NC1CC(Cl)C(N2CC(Oc3ccc(F)cc3F)CCC2=O)C(Cl)C1 (stereo unspecified) | ≥ 5.00
19 | CC1(C)NC(=O)N(CCNc2cc(Cl)c(N3CC(Cc4ccc(F)cc4F)CCC3=O)c(Cl)c2)C1=O (stereo unspecified) | ≥ 5.00
20 | O=C1CSC(Cc2cccc3ccccc23)CN1c1c(Cl)cccc1Cl (stereo unspecified) | ≥ 5.00
21 | O=C1CCC(Oc2ccc(Cl)cc2)CN1c1c(Cl)csc1Cl (stereo unspecified) | ≥ 5.00
22 | O=C1CCC(Cc2ccc(F)cc2F)CN1C1C(Cl)CC(CO)CC1Cl (stereo unspecified) | ≥ 5.00
23 | CN1CCN(Cc2cc(Cl)c(N3CC(Cc4ccc(F)cc4F)CCC3=O)c(Cl)c2)CC1 (stereo unspecified) | ≥ 5.00
24 | O=C1CCC(Sc2ccc(F)cc2F)CN1c1c(Cl)cc(CO)cc1Cl (stereo unspecified) | ≥ 5.00

The next lines start with the values.

Row | pIC50 | SMILES
25 | ≥ 5.00 | O=C1CCC(Cc2ccc(F)cc2F)CN1c1c(Cl)cc(N2CCNCC2)cc1Cl (stereo unspecified)
26 | ≥ 5.00 | O=C1SCC(Cc2ccc(F)cc2F)CN1c1c(Cl)cc(O)cc1Cl (stereo unspecified)
27 | ≥ 5.00 | Cc1ccc(SC2CCC(=O)N(c3c(Cl)cncc3Cl)C2)cc1 (stereo unspecified)
28 | ≥ 5.00 | Cc1ccccc1SC1CCC(=O)N(C2C(Cl)CCCC2Cl)C1 (stereo unspecified)
29 | ≥ 5.00 | O=C1CCC(Cc2ccc(F)cc2F)CN1c1cc(Cl)cc(Cl)c1 (stereo unspecified)
30 | ≥ 5.00 | NC(=O)C[C@H](N)C(=O)Nc1cc(Cl)c(N2CC(Cc3ccc(F)cc3F)CCC2=O)c(Cl)c1 (stereo partly specified)
31 | ≥ 5.00 | CN(C)CCCNc1cc(Cl)c(N2CC(Cc3ccc(F)cc3F)CCC2=O)c(Cl)c1 (stereo unspecified)
32 | ≥ 5.00 | CNc1ncc(Cl)c(N2CC(Sc3ccc(F)cc3F)CCC2=O)c1Cl (stereo unspecified)
33 | ≥ 5.00 | O=C1CCC(Sc2ccc(Cl)cc2Cl)CN1c1c(Cl)ccnc1Cl (stereo unspecified)
34 | ≥ 5.00 | Cc1ccccc1CC1CN(c2c(Cl)cccc2Cl)C(=O)CO1 (stereo unspecified)
35 | ≥ 5.00 | O=C1CCC(Oc2cc(F)cc(F)c2)CN1c1c(Cl)ccnc1Cl (stereo unspecified)
36 | ≥ 5.00 | O=C1CCC(Sc2ccc(Cl)cc2)CN1c1c(Cl)csc1Cl (stereo unspecified)
37 | ≥ 5.00 | Cc1nc[nH]c1CNc1cc(Cl)c(N2CC(Cc3ccccc3)CCC2=O)c(Cl)c1 (stereo unspecified)
38 | ≥ 5.00 | O=C1CCC(Cc2cc(Cl)cc(Cl)c2)CN1c1c(Cl)cncc1Cl (stereo unspecified)
39 | ≥ 5.00 | O=C1CCC(Oc2ccc(Cl)cc2)CN1c1c(Cl)ccnc1Cl (stereo unspecified)
40 | ≥ 5.00 | O=C1CCC(Sc2ccc(Cl)cc2Cl)CN1c1c(Cl)cncc1Cl (stereo unspecified)
41 | ≥ 5.00 | O=C1CCC(Sc2ccc(F)cc2)CN1c1c(Cl)cncc1Cl (stereo unspecified)
42 | ≥ 5.00 | O=C1CCC(Sc2ccc(F)cc2)CN1C1C(Cl)CCCC1Cl (stereo unspecified)
43 | ≥ 5.00 | CC(=O)Nc1cc(Cl)c(N2CC(Sc3ccc(F)cc3F)CCC2=O)c(Cl)n1 (stereo unspecified)
44 | ≥ 5.00 | Cc1ccccc1CC1CCC(=O)N(c2c(Cl)cncc2Cl)C1 (stereo unspecified)
45 | ≥ 5.00 | CN1CC(=O)N(c2c(Cl)cccc2Cl)CC1Cc1ccc(F)cc1F (stereo unspecified)
46 | ≥ 5.00 | O=C1CCC(Cc2ccccc2F)CN1c1c(Cl)ccnc1Cl (stereo unspecified)
47 | ≥ 5.00 | Cc1ccc(CC2CCC(=O)N(c3c(Cl)cccc3Cl)C2)cc1 (stereo unspecified)
48 | ≥ 5.00 | O=C1CCC(Oc2ccc(F)cc2F)CN1c1c(Cl)ccnc1Cl (stereo unspecified)
49 | ≥ 5.00 | COc1ccc(CC2CCC(=O)N(c3c(Cl)csc3Cl)C2)cc1 (stereo unspecified)
50 | ≥ 5.00 | Nc1ccc(Cl)c(N2CC(Cc3ccc(F)cc3F)SCC2=O)c1Cl (stereo unspecified)
51 | ≥ 5.00 | Cc1cc(C)cc(CC2CN(C)C(=O)N(c3c(Cl)cccc3Cl)C2)c1 (stereo unspecified)
